Earlier results on 3 molecules are cited in US20010007758A1, “Treatment of multiple sclerosis using COP-1 and Th2-enhancing cytokines” (Autoimmune, Inc., priority 1998, published 2001).

One series has as its system MS. To be noted: daily subcutaneous injections of 20 mg.
In series [1] the test system is EAE. To be noted: oral administration to rats.
Another series deals with T cell. The conditions noted are these: oral administration to rats.
The test system of the next series is MBP-specific T cells. The conditions noted are these: experiments in mice.
For series [2], the system named is T suppressor cells specific for MBP.
Series [3] has as its system experimental allergic encephalitis (EAE). The conditions noted are these: in vivo.
The subject of series [4] is EAE. The conditions noted are these: oral feeding; EAE induced with 0.4 mg mouse MBP; monitored 35 days.

On to glatiramer acetate [COP-1], for which, in the series with MS, the “Expanded Disability Status Scale” value is “significant improvement”; the “annualized relapse rate, lower in treated patients” value is 29%; the “proportion of patients that did not have a relapse in clinical disease” value was 34%. Moreover, in the series on EAE [1], the “severity and incidence of EAE” value was “suppressed”. In the series on T cell, the “T cell proliferative responses” value is “inhibited” and the TH1 cytokine production entry was “inhibited”. Besides, in the series on MBP-specific T cells, the “effect on MBP-specific T cells involved in destruction of central nervous system tissue in EAE” value is “specifically inhibits”. In series [2], the “induction of T suppressor cells specific for MBP” value is on record as “induce T suppressor cells”. For the same molecule, in series [3], the “encephalitogenicity (causes EAE when injected)” value is recorded as “not encephalitogenic”.

B1: IL-4: interleukin-4, a Th2-enhancing cytokine (protein, UniProt P05112 25-153, looked up)
Interleukin-4: HKCDITLQEIIKTLNSLTEQKTLCTELTVTDIFAASKNTTEKETFCRAATVLRQFYSHHEKDTRCLGATAQQFHRHKQLIRFLKRLDRNLWGLAGLNSCPVKEANQSTLENFLERLKTIMREKYSKCSS
Turning to B1, the “delay in disease onset” value with EAE [4] was 21 days.

B2: MBP: myelin basic protein, a component of myelin in the central nervous system (protein, UniProt P02686 1-304, looked up)
Myelin basic protein: MGNHAGKRELNAEKASTNSETNRGESEKKRNLGELSRTTSEDNEVFGEADANQNNGTSSQDTAVTDSKRTADPKNAWQDAHPADPGSRPHLIRLFSRDAPGREDNTFKDRPSESDELQTIQEDSAATSESLDVMASQKRPSQRHGSKYLATASTMDHARHGFLPRHRDTGILDSIGRFFGGDRGAPKRGSGKDSHHPARTAHYGSLPQKSHGRTQDENPVVHFFKNIVTPRTPPPSQGKGRGLSLSRFSWGAEGQRPGFGYGGRASDYKSAHKGFKGVDAQGTLSKIFKLGGRDSRSGSPMARR
As for B2, in the series with EAE [4], the “delay in disease onset” value is 22 days. Also, the “encephalitogenicity (causes EAE when injected)” value in series [3] is given as “highly encephalitogenic”.
